Where two headings read alike, the source gives them in different places.
Test system: Sprague-Dawley rats
Assay: Retinoid analyses in liver, serum and kidney
Type: in vivo, Rattus norvegicus
Conditions: for CED, Kidney all-trans RA amount / CED, Kidney all-trans RA concentration / CED, Kidney retinol amount / CED, Kidney retinol concentration / CED, Liver retinol amount / CED, Liver retinol concentration / CED, Liver retinyl esters amount / CED, Liver retinyl esters concentration / CED, Serum retinol concentration / CED-L, Kidney all-trans RA amount / CED-L, Kidney all-trans RA concentration / CED-L, Kidney retinol amount / CED-L, Kidney retinol concentration / CED-L, Liver retinol amount / CED-L, Liver retinol concentration / CED-L, Liver retinyl esters amount / CED-L, Liver retinyl esters concentration / CED-L, Serum retinol concentration / CED, Liver 9c-4o-13,14-dh-RA amount / CED, Liver 9c-4o-13,14-dh-RA concentration / CED-L, Liver 9c-4o-13,14-dh-RA amount / CED-L, Liver 9c-4o-13,14-dh-RA concentration / CED, Liver all-trans RA amount / CED, Liver all-trans RA concentration / CED-L, Liver all-trans RA amount / CED-L, Liver all-trans RA concentration / CED, Kidney retinyl esters amount / CED, Kidney retinyl esters concentration / CED-L, Kidney retinyl esters amount / CED-L, Kidney retinyl esters concentration: adipose tissue concentration based; for Emax: Rattus norvegicus, controls vs high dose according to the fitted model
Experimental: Retinoids in liver, serum, and kidney were analyzed according to Schmidt et al.. The polar retinoids 9-cis-retinoic acid (9-cis-RA), 13-cis-retinoic acid (13-cis-RA), 13-cis-4-oxo-retinoic acid (13-cis-4-o-RA), 9-cis-4-oxo-13,14-dihydro-retinoic acid (9-cis-4-o-13,14-dh-RA), all-trans retinoic acid (all-trans RA) and the apolar retinoids retinol and retinyl palmitate were extracted by a single liquid-extraction, separated from each other via solid-phase extraction using an aminopropyl phase, and then injected onto two different HPLC systems that were coupled with UV detection. […] The limits of detection (LOD) for all-trans RA and 9c-4o-13,14-dh-RA were 0.7 and 1.0 pmol/g tissue, and 0.3 and 0.6 pmol/ml serum, respectively. Retinol and retinyl palmitate were separated on a J'sphere ODS-H80 (4.6×150 mm, 4 µm particle size) obtained from YMC (Schermbeck, Germany), and were detected at 325 nm. The LOD for retinol and retinyl palmitate were 5.6 and 5.5 pmol/g tissue, and 4.2 and 4.2 pmol/ml serum, respectively.
Data were also analyzed using the BMD method, which is based on dose-response modeling of the full data set using a nested family of exponential and Hill models. The analyses were done on data of males and females combined, using sex as a covariate. […] In that case, different Critical Effect Doses (CEDs) and CEDs at the lowest bound of the confidence interval (CED-L) were generated for each sex. If no difference between sexes is detected, a CED and CED-Ls for the combined data is generated. However, this was also done if the curve fits are close, and separate analyses for males and females were then performed manually. CEDs and CED-Ls were calculated at the predefined Critical Effect Size (CES) of 5% (EFSA standard) or 10%.

Clc1cc(Cl)c(-c2cc(Cl)c(Cl)c(Cl)c2Cl)cc1Cl [PCB 180, 2,2′,3′,4,4′,5,5′-heptachlorobiphenyl]
CED, Kidney all-trans RA amount (F, CES 5%, model E2): 3290 µg/g lipid | CED, Kidney all-trans RA concentration (F, CES 5%, model E2): 2930 µg/g lipid | CED, Kidney retinol amount (F, CES 5%, model E2): 2240 µg/g lipid | CED, Kidney retinol concentration (F, CES 5%, model E2): 2060 µg/g lipid | CED, Liver retinol amount (F, CES 5%, model E2): 2840 µg/g lipid | CED, Liver retinol concentration (F, CES 5%, model E2): 1000 µg/g lipid | CED, Liver retinyl esters amount (F, CES 5%, model E2): 1620 µg/g lipid | CED, Liver retinyl esters concentration (F, CES 5%, model E2): 793 µg/g lipid | CED, Serum retinol concentration (F, CES 5%, model E2): 2470 µg/g lipid | CED-L, Kidney all-trans RA amount (F, CES 5%, model E2): 2092 µg/g lipid | CED-L, Kidney all-trans RA concentration (F, CES 5%, model E2): 2052 µg/g lipid | CED-L, Kidney retinol amount (F, CES 5%, model E2): 1398 µg/g lipid | CED-L, Kidney retinol concentration (F, CES 5%, model E2): 1346 µg/g lipid | CED-L, Liver retinol amount (F, CES 5%, model E2): 1476 µg/g lipid | CED-L, Liver retinol concentration (F, CES 5%, model E2): 762 µg/g lipid | CED-L, Liver retinyl esters amount (F, CES 5%, model E2): 1206 µg/g lipid | CED-L, Liver retinyl esters concentration (F, CES 5%, model E2): 670 µg/g lipid | CED-L, Serum retinol concentration (F, CES 5%, model E2): 1521 µg/g lipid | CED, Liver 9c-4o-13,14-dh-RA amount (F, CES 5%, model E4): 59.6 µg/g lipid | CED, Liver 9c-4o-13,14-dh-RA concentration (F, CES 5%, model E4): 55.5 µg/g lipid | CED-L, Liver 9c-4o-13,14-dh-RA amount (F, CES 5%, model E4): 37.4 µg/g lipid | CED-L, Liver 9c-4o-13,14-dh-RA concentration (F, CES 5%, model E4): 39.6 µg/g lipid | CED, Kidney all-trans RA amount (F, CES 10%, model E2): 6430 µg/g lipid | CED, Kidney all-trans RA concentration (F, CES 10%, model E2): 5720 µg/g lipid | CED, Kidney retinol amount (F, CES 10%, model E2): 4370 µg/g lipid | CED, Kidney retinol concentration (F, CES 10%, model E2): 4030 µg/g lipid | CED, Liver retinol amount (F, CES 10%, model E2): 5820 µg/g lipid | CED, Liver retinol concentration (F, CES 10%, model E2): 2060 µg/g lipid | CED, Liver retinyl esters amount (F, CES 10%, model E2): 3300 µg/g lipid | CED, Liver retinyl esters concentration (F, CES 10%, model E2): 1630 µg/g lipid | CED, Serum retinol concentration (F, CES 10%, model E2): 4820 µg/g lipid | CED-L, Kidney all-trans RA amount (F, CES 10%, model E2): 4088 µg/g lipid | CED-L, Kidney all-trans RA concentration (F, CES 10%, model E2): 4009 µg/g lipid | CED-L, Kidney retinol amount (F, CES 10%, model E2): 2731 µg/g lipid | CED-L, Kidney retinol concentration (F, CES 10%, model E2): 2630 µg/g lipid | CED-L, Liver retinol amount (F, CES 10%, model E2): 3032 µg/g lipid | CED-L, Liver retinol concentration (F, CES 10%, model E2): 1565 µg/g lipid | CED-L, Liver retinyl esters amount (F, CES 10%, model E2): 2477 µg/g lipid | CED-L, Liver retinyl esters concentration (F, CES 10%, model E2): 1375 µg/g lipid | CED-L, Serum retinol concentration (F, CES 10%, model E2): 2970 µg/g lipid | CED, Liver 9c-4o-13,14-dh-RA amount (F, CES 10%, model E4): 124 µg/g lipid | CED, Liver 9c-4o-13,14-dh-RA concentration (F, CES 10%, model E4): 115 µg/g lipid | CED-L, Liver 9c-4o-13,14-dh-RA amount (F, CES 10%, model E4): 77.9 µg/g lipid | CED-L, Liver 9c-4o-13,14-dh-RA concentration (F, CES 10%, model E4): 82.1 µg/g lipid | CED, Kidney retinol amount (M, CES 5%, model E2): 897 µg/g lipid | CED, Kidney retinol concentration (M, CES 5%, model E2): 863 µg/g lipid | CED, Liver all-trans RA amount (M, CES 5%, model E2): 95.1 µg/g lipid | CED, Liver all-trans RA concentration (M, CES 5%, model E2): 1920 µg/g lipid | CED, Liver retinol amount (M, CES 5%, model E2): 1860 µg/g lipid | CED, Liver retinyl esters amount (M, CES 5%, model E2): 620 µg/g lipid | CED-L, Kidney retinol amount (M, CES 5%, model E2): 638 µg/g lipid | CED-L, Kidney retinol concentration (M, CES 5%, model E2): 640 µg/g lipid | CED-L, Liver all-trans RA amount (M, CES 5%, model E2): 36.8 µg/g lipid | CED-L, Liver all-trans RA concentration (M, CES 5%, model E2): 1143 µg/g lipid | CED-L, Liver retinol amount (M, CES 5%, model E2): 1111 µg/g lipid | CED-L, Liver retinyl esters amount (M, CES 5%, model E2): 525 µg/g lipid | CED, Kidney retinyl esters amount (M, CES 5%, model E4): 38.8 µg/g lipid | CED, Kidney retinyl esters concentration (M, CES 5%, model E4): 42.2 µg/g lipid | CED, Liver retinol concentration (M, CES 5%, model E4): 31.2 µg/g lipid | CED, Liver retinyl esters concentration (M, CES 5%, model E4): 108 µg/g lipid | CED-L, Kidney retinyl esters amount (M, CES 5%, model E4): 12.5 µg/g lipid | CED-L, Kidney retinyl esters concentration (M, CES 5%, model E4): 13.6 µg/g lipid | CED-L, Liver retinol concentration (M, CES 5%, model E4): 18.8 µg/g lipid | CED-L, Liver retinyl esters concentration (M, CES 5%, model E4): 60.1 µg/g lipid | CED, Kidney retinol amount (M, CES 10%, model E2): 1750 µg/g lipid | CED, Kidney retinol concentration (M, CES 10%, model E2): 1690 µg/g lipid | CED, Liver all-trans RA amount (M, CES 10%, model E2): 196 µg/g lipid | CED, Liver all-trans RA concentration (M, CES 10%, model E2): 3750 µg/g lipid | CED, Liver retinol amount (M, CES 10%, model E2): 3820 µg/g lipid | CED, Liver retinyl esters amount (M, CES 10%, model E2): 1270 µg/g lipid | CED-L, Kidney retinol amount (M, CES 10%, model E2): 1244 µg/g lipid | CED-L, Kidney retinol concentration (M, CES 10%, model E2): 1250 µg/g lipid | CED-L, Liver all-trans RA amount (M, CES 10%, model E2): 76 µg/g lipid | CED-L, Liver all-trans RA concentration (M, CES 10%, model E2): 2233 µg/g lipid | CED-L, Liver retinol amount (M, CES 10%, model E2): 2282 µg/g lipid | CED-L, Liver retinyl esters amount (M, CES 10%, model E2): 1078 µg/g lipid | CED, Kidney retinyl esters amount (M, CES 10%, model E4): 78.3 µg/g lipid | CED, Kidney retinyl esters concentration (M, CES 10%, model E4): 85.2 µg/g lipid | CED, Liver retinol concentration (M, CES 10%, model E4): 66.6 µg/g lipid | CED, Liver retinyl esters concentration (M, CES 10%, model E4): 225 µg/g lipid | CED-L, Kidney retinyl esters amount (M, CES 10%, model E4): 25.2 µg/g lipid | CED-L, Kidney retinyl esters concentration (M, CES 10%, model E4): 27.5 µg/g lipid | CED-L, Liver retinol concentration (M, CES 10%, model E4): 40.0 µg/g lipid | CED-L, Liver retinyl esters concentration (M, CES 10%, model E4): 126 µg/g lipid | Emax (F, model E2, read-out: Maximum response, Kidney all-trans RA amount): 18.2% | Emax (F, model E2, read-out: Maximum response, Kidney all-trans RA concentration): 20.7% | Emax (F, model E2, read-out: Maximum response, Kidney retinol amount): 28% | Emax (F, model E2, read-out: Maximum response, Kidney retinol concentration): 30.7% | Emax (F, model E2, read-out: Maximum response, Liver retinol amount): -18.5% | Emax (F, model E2, read-out: Maximum response, Liver retinol concentration): -43.9% | Emax (F, model E2, read-out: Maximum response, Liver retinyl esters amount): -30.1% | Emax (F, model E2, read-out: Maximum response, Liver retinyl esters concentration): -51.9% | Emax (F, model E2, read-out: Maximum response, Serum retinol concentration): 25%

— paper PMC4138103 (PLoS ONE, 2014)
